pIC50: −log10 of the molar value.
Columns and labels:
THP-1 cells = test: LPS-Stimulation of THP-1 Cells, TNF-α release; type: cell-based; conditions: Homo sapiens, LPS 1 μg/ml, 6 hrs, read-out: Inhibitor activity versus THP-1 TNFα release
Protocol: LPS-Stimulation of THP-1 Cells
THP-1 cells were plated in 100 μl at a density of 4×10^4 cells/well in V-bottomed 96 well tissue culture treated plates and incubated at 37° C. in 5% CO2 for 16 hrs. 2 hrs after the addition of the inhibitor in 100 μl of tissue culture media, the cells were stimulated with LPS (E. coli strain 005:85, Sigma) at a final concentration of 1 μg/ml and incubated at 37° C. in 5% CO2 for 6 hrs. TNF-α levels were measured from cell-free supernatants by sandwich ELISA (R&D Systems #QTA00B)

IKBKB (IKKβ) = molecular target: T1, IKBKB (IKKβ) (Homo sapiens, UniProt O14920); test: IKKβ Enzyme Assay (Z'-LYTE, Invitrogen); type: biochemical; conditions: ATP at or close to Km; read-out: Inhibitor activity versus IKKβ
T1 construct: purchased Invitrogen (Paisley, UK)
T1 sequence (O14920 1-756): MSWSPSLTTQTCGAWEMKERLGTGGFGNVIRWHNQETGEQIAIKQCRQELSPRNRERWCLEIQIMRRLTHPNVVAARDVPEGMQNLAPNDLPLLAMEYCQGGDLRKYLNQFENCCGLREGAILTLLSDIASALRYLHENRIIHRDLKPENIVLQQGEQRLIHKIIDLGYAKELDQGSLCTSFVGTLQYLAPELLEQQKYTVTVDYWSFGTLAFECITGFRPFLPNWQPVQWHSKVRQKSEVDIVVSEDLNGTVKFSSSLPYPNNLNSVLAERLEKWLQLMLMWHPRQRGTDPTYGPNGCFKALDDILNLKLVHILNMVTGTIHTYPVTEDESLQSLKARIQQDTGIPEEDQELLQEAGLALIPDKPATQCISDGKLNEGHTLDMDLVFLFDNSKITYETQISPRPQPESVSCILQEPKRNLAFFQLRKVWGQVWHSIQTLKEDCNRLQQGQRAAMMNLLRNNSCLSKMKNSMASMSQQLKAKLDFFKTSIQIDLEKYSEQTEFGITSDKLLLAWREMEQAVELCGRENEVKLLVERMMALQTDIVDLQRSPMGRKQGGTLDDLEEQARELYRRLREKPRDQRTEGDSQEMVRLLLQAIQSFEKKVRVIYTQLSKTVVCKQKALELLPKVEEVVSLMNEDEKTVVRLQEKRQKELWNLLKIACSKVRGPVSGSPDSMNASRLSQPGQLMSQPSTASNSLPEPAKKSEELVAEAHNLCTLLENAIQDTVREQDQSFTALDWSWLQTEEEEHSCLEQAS
Protocol: The ability of compounds to inhibit IKKβ kinase activity was measured in an assay performed by Invitrogen (Paisley, UK). The Z′-LYTE™ biochemical assay employs a fluorescence-based, coupled-enzyme format and is based on the differential sensitivity of phosphorylated and non-phosphorylated peptides to proteolytic cleavage. The peptide substrate is labelled with two fluorophores—one at each end—that make up a FRET pair. In the primary reaction, the kinase transfers the gamma-phosphate of ATP to a single serine or threonine residue in a synthetic FRET-peptide. In the secondary reaction, a site-specific protease recognizes and cleaves non-phosphorylated FRET-peptides. Phosphorylation of FRET-peptides suppresses cleavage by the Development Reagent. Cleavage disrupts FRET between the donor (i.e., coumarin) and acceptor (i.e. fluorescein) fluorophores on the FRET-peptide, whereas uncleaved, phosphorylated FRET-peptides maintain FRET. A […] method, which calculates the ratio (the Emission Ratio) of donor emission to acceptor emission after excitation of the donor fluorophore at 400 nm, is used to quantitate reaction progress.
The final 10 μL Kinase Reaction consists of 0.9-8.0 ng IKBKB (IKKβ), 2 μM Ser/Thr 05 Peptide and ATP in 50 mM HEPES pH 7.5, 0.01% BRIJ-35, 10 mM MgCl2, 1 mM EGTA. The assay is performed at an ATP concentration at, or close to the Km. After the 60 minute Kinase Reaction incubation at room temperature, 5 μL of a 1:128 dilution of Development Reagent is added. The assay plate is incubated for a further 60 minutes at room temperature and read on a fluorescence plate reader.
Duplicate data points are generated from a ⅓ log dilution series of a stock solution of test compound in DMSO. Nine dilutions steps are made from a top concentration of 10 μM, and a ‘no compound’ blank is included. Data is collected and analysed using XLfit software from IDBS. The dose response curve is curve fitted to model number 205 (sigmoidal dose-response model). From the curve generated, the concentration giving 50% inhibition is determined and reported.

Compound	pIC50 (THP-1 cells)	pIC50 (IKBKB (IKKβ))
CC(C)C[C@H](NC/C=C/c1ccc(-c2cc(C(N)=O)c(NC(N)=O)s2)c(F)c1)C(=O)OC1CCCC1 [Example 34, Cyclopentyl N-[(2E)-3-{4-[4-carbamoyl-5-(carbamoylamino)thiophen-2-yl]-3-fluorophenyl}prop-2-en-1-yl]-L-leucinate]	5.30 to 6.00	> 6.00
CC(C)C[C@H](NCCCCCOc1ccc(-c2cc(C(N)=O)c(NC(N)=O)s2)cc1)C(=O)OC1CCCC1 [Example 27, Cyclopentyl N-(5-{4-[4-carbamoyl-5-(carbamoylamino)-2-thienyl]phenoxy}pentyl)-L-leucinate]	5.30 to 6.00	> 6.00
Cc1cc(-c2cc(C(N)=O)c(NC(N)=O)s2)ccc1CN[C@@H](CC(C)C)C(=O)OC1CCCC1 [Example 7, Cyclopentyl N-{-4-[4-carbamoyl-5-(carbamoylamino)-2-thienyl]-2-methylbenzyl}-L-leucinate]	5.30 to 6.00	> 6.00
CC(C)C[C@H](NCCCOc1ccc(-c2cc(C(N)=O)c(NC(N)=O)s2)cc1)C(=O)OC1CCCC1 [Example 25, Cyclopentyl N-(3-{4-[4-carbamoyl-5-(carbamoylamino)-2-thienyl]phenoxy}propyl)-L-leucinate]	5.30 to 6.00	5.30 to 6.00
NC(=O)Nc1sc(-c2ccc(CN[C@H](C(=O)OC3CCCC3)c3ccc4ccccc4c3)cc2)cc1C(N)=O [Example 5, Cyclopentyl (2S)-({4-[4-carbamoyl-5-(carbamoylamino)-2-thienyl]benzyl}amino)(2-naphthyl)acetate]	< 5.30	< 5.30
CC(C)C[C@H](NCCCCCOc1ccc(-c2cc(C(N)=O)c(NC(N)=O)s2)c(Cl)c1)C(=O)OC1CCCC1 [Example 28, Cyclopentyl N-(5-{4-[4-carbamoyl-5-(carbamoylamino)-2-thienyl]-3-chlorophenoxy}pentyl)-L-leucinate]	5.30 to 6.00	< 5.30
NC(=O)Nc1sc(-c2ccc(CN[C@@H](Cc3ccccc3)C(=O)OC3CCCC3)cc2)cc1C(N)=O [Example 3, Cyclopentyl N-{-4-[4-carbamoyl-5-(carbamoylamino)-2-thienyl]benzyl}-L-phenylalaninate]	< 5.30	< 5.30
CC(C)C[C@H](NCCCOc1ccc(-c2cc(C(N)=O)c(NC(N)=O)s2)c(Cl)c1)C(=O)OC1CCCC1 [Example 26, Cyclopentyl N-(3-{4-[4-carbamoyl-5-(carbamoylamino)-2-thienyl]-3-chlorophenoxy}propyl)-L-leucinate]	5.30 to 6.00	5.30 to 6.00
CC(C)C[C@H](NC/C=C/c1ccc(-c2cc(C(N)=O)c(NC(N)=O)s2)cc1C(F)(F)F)C(=O)OC1CCCC1 [Example 36, Cyclopentyl N-[(2E)-3-{4-[4-carbamoyl-5-(carbamoylamino)thiophen-2-yl]-2-(trifluoromethyl)phenyl}prop-2-en-1-yl]-L-leucinate]	< 5.30	5.30 to 6.00
CC(C)C[C@H](NC/C=C/c1cc(F)c(-c2cc(C(N)=O)c(NC(N)=O)s2)cc1F)C(=O)OC1CCCC1 [Example 37, Cyclopentyl N-[(2E)-3-{4-[4-carbamoyl-5-(carbamoylamino)thiophen-2-yl]-2,5-difluorophenyl}prop-2-en-1-yl]-L-leucinate]	5.30 to 6.00	5.30 to 6.00
CC(C)C[C@H](NCCc1ccc(-c2cc(C(N)=O)c(NC(N)=O)s2)cc1)C(=O)OC1CCCC1 [Example 16, Cyclopentyl N-(2-{4-[4-carbamoyl-5-(carbamoylamino)-2-thienyl]phenyl}ethyl)-L-leucinate]	5.30 to 6.00	5.30 to 6.00
CC(C)C[C@H](NCc1ccc(-c2cc(C(N)=O)c(NC(N)=O)s2)c(Cl)c1)C(=O)OC1CCCC1 [Example 6, Cyclopentyl N-{-4-[4-carbamoyl-5-(carbamoylamino)-2-thienyl]-3-chlorobenzyl}-L-leucinate]	< 5.30	> 6.00
Cc1cc(-c2cc(C(N)=O)c(NC(N)=O)s2)ccc1/C=C/CN[C@@H](CC(C)C)C(=O)OC1CCCC1 [Example 30, Cyclopentyl N-[(2E)-3-{4-[4-carbamoyl-5-(carbamoylamino)thiophen-2-yl]-2-methylphenyl}prop-2-en-1-yl]-L-leucinate]	5.30 to 6.00	5.30 to 6.00
CC(C)C[C@H](NCCc1ccc(-c2cc(C(N)=O)c(NC(N)=O)s2)c(Cl)c1)C(=O)OC1CCCC1 [Example 17, Cyclopentyl N-(2-{4-[4-carbamoyl-5-(carbamoylamino)-2-thienyl]-3-chlorophenyl}ethyl)-L-leucinate]	< 5.30	5.30 to 6.00
CC(C)C[C@H](NC/C=C/c1ccc(-c2cc(C(N)=O)c(NC(N)=O)s2)cc1)C(=O)O [Example 69, N-[(2E)-3-{4-[4-Carbamoyl-5-(carbamoylamino)-2-thienyl]phenyl}prop-2-en-1-yl]-L-leucine]	–	> 6.00
CC(C)C[C@H](NCCCCCOc1ccc(-c2cc(C(N)=O)c(NC(N)=O)s2)cc1)C(=O)O [Example 67]	–	> 6.00
CC(C)C[C@H](NC/C=C/c1ccc(-c2cc(C(N)=O)c(NC(N)=O)s2)c(Cl)c1)C(=O)O [Example 75, N-[(2E)-3-{4-[4-carbamoyl-5-(carbamoylamino)thiophen-2-yl]-3-chlorophenyl}prop-2-en-1-yl]-L-leucine]	–	> 6.00
CC(C)C[C@H](NC/C=C/c1ccc(-c2cc(C(N)=O)c(NC(N)=O)s2)c(C(F)(F)F)c1)C(=O)O [Example 79, N-[(2E)-3-{4-[4-carbamoyl-5-(carbamoylamino)thiophen-2-yl]-3-(trifluoromethyl)phenyl}prop-2-en-1-yl]-L-leucine]	–	5.30 to 6.00
NC(=O)Nc1sc(-c2ccc(CN[C@@H](C(=O)O)c3ccccc3)cc2)cc1C(N)=O [Example 53, (2R)-({-4-[4-Carbamoyl-5-(carbamoylamino)-2-thienyl]benzyl}amino)(phenyl)acetic acid]	–	> 6.00
CC(C)C[C@H](NC/C=C/c1cc(F)c(-c2cc(C(N)=O)c(NC(N)=O)s2)cc1F)C(=O)O [Example 77, N-[(2E)-3-{4-[4-carbamoyl-5-(carbamoylamino)thiophen-2-yl]-2,5-difluorophenyl}prop-2-en-1-yl]-L-leucine]	–	> 6.00
CC(C)C[C@H](NC/C=C/c1ccc(-c2cc(C(N)=O)c(NC(N)=O)s2)cc1Cl)C(=O)O [Example 72, N-[(2E)-3-{4-[4-carbamoyl-5-(carbamoylamino)thiophen-2-yl]-2-chlorophenyl}prop-2-en-1-yl]-L-leucine]	–	> 6.00
CC(C)C[C@H](NCCCOc1ccc(-c2cc(C(N)=O)c(NC(N)=O)s2)c(Cl)c1)C(=O)O [Example 66, N-(3-{4-[4-Carbamoyl-5-(carbamoylamino)-2-thienyl]-3-chlorophenoxy}propyl)-L-leucine]	–	> 6.00
CC(C)C[C@H](NCc1ccc(-c2cc(C(N)=O)c(NC(N)=O)s2)c(Cl)c1)C(=O)O [Example 55, N{4-[4-carbamoyl-5-(carbamoylamino)-2-thienyl]-3-chlorobenzyl}-L-leucine]	–	> 6.00

Reference: patent US8003695B2 (Chroma Therapeutics Ltd., priority 2006, dated 2011)
